Key:
[1] = Determination of the single i.v. dose MTD in normal female BALB/c mice; assay type: in vivo
Procedure: The Maximal Tolerated Dose (MTD) is determined according to standard procedures; preferably, in warm-blooded animals the MTD in case of oral or intravenous administration is determined as the Dose of a single administration where no death occurs and a loss of body weight of less than 40, preferably less than 25, percent (%) is found in the treated warm-blooded animal individual (this term here mainly referring to an animal; for humans see below).
For the MTD determination, female BALB/c nude mice or BALB/c mice (obtained from Novartis Animal Farm, Sisseln, Switzerland) are treated once intravenously with epothilone B (n=3 per dose group). The dosage is increased (2, 4, 6, 8, 10 and 12 mg/kg) and the mice are observed for the presentation of overt toxic effects for 10 days after drug treatment.

[2] = tested on: ZR-75-1 (Breast); assay: Antiproliferative assay, ZR-75-1; assay type: cell-based, human; details: ZR-75-1, 5 d exposure, mean ± SD, n = 3; read-out: IC50 for growth inhibition
Procedure: (§1) Antiproliferative assays are performed as previously described (Int. J. Cancer 43, 851-6 (1989)). Briefly, cells are seeded at 1.5×10^3 cells/well into 96-well microtiter plates and incubated overnight. Compounds are added in serial dilutions on day 1. The plates are then incubated for an additional 2 to 5 days, allowing for at least one cell doubling (cell line dependent), after which the cells are fixed with 3.3% v/v glutaraldehyde, washed with water and stained with 0.05% w/v methylene blue. After washing, the dye is eluted with 3% v/v HCl and the optical density measured at 665 nm with a SpectraMax 340 (Bucherer, Basel, Switzerland). IC50 values are determined by a computerized system (SoftPro, Bucherer, Basel, Switzerland) using the formula (OD test−OD start)/(OD control−OD start)×100. IC50 is defined as the drug concentration which leads to 50% of cells per well compared to control cultures (100%) at the end of incubation period.

[3] = tested on: KB-8511 (Epidermoid, MDR); assay: Antiproliferative assay, KB-8511; assay type: cell-based, human
Procedure: The human epidermal (mouth) carcinoma cell line KB-8511 (a P-gp over-expressing cell line derived from the epidermoid (mouth) KB-31 carcinoma cell line) is obtained from Dr. R. M. Baker, Roswell Park Memorial Institute (Buffalo, N.Y., USA) (for description see Akiyama et al., Somat. Cell. Mol. Genetics 11, 117-126 (1985) and Fojo A., et al., Cancer Res. 45, 3002-3007 (1985)) and is cultured as previously described (Meyer, T., et al., Int. J. Cancer 43 851-856 (1989)).
as §1

[4] = tested on: human PC-3M prostate carcinoma cells; assay: Antitumor effect against orthotopically injected PC-3M cells; assay type: in vivo, male BALB/c nude mice; details: for Tumor Response (T/C %) Lymph Nodes / Tumor Response (T/C %) Prostate: day 42
Procedure: A human androgen-independent prostate cancer cell line is used to establish subcutaneous and orthotopic models in mice. The human metastatic prostate carcinoma PC-3M is obtained from Dr. I. J. Fidler (MD Anderson Cancer Center, Houston, Tex., USA) and is cultured in Ham's F12K media supplemented with 7% v/v FBS. The PC-3M cell line is the result of isolation from liver metastasis produced in nude mice subsequent to intrasplenic injection of PC-3 cells [ATCC CRL 1435; American Type Culture Collection (Rockville, Md., USA)], and they can grow in Eagle's MEM supplemented with 10% fetal bovine serum, sodium pyruvate, non-essential amino acids, L-glutamine, a two-fold vitamin solution (Gibco Laboratories, Long Island, N.Y.) and penicillin-streptomycin (Flow Laboratories, Rockville, Md.). The PC-3M cell line is hormone-insensitive (that is, it grows in the absence of androgens). The PC-3 cell line is androgen receptor negative, as is presumably the derived PC-3M cell line. […] The cells are near-triploid with a modal number of 62 chromosomes. No normal Y chromosomes can be detected by Q-band analysis.
Human prostate carcinoma PC-3M cells (1×10^6 cells per 20 μl phosphate buffered saline) are injected into the left […] of the prostate of each animal (n=6-9/group) according the method previously described (see Stephenson et al., J. Natl. Cancer Inst. 84, 951-7 (1992)). Treatment is started on day 14 after cell injection. At this time point a mean tumor weight of ˜20 mg is established. Epothilone B is administered either once or once weekly. Mice are sacrificed 42 days post tumor inoculation, and the prostates are carefully removed, dissected free of adhering tissue and weighed. […] Mesenteric lymph nodes are examined for the presence of metastases, dissected free of adhering tissue and weighed.
Tumor weight and body weights are monitored once or twice weekly. All treatments are administered intravenously (i.v.) and are initiated 14 days post cell injection. Treatment with epothilone B varies the dose and frequency of administration. Antitumor activity is expressed as T/C % (mean tumor weight of treated animals divided by the mean tumor weight of control animals multiplied by 100).

[5] = 2 mg/kg single i.v. bolus, Experiment 2
[6] = 4 mg/kg single i.v. bolus, Experiment 2
[7] = 6 mg/kg single i.v. bolus, Experiment 1
[8] = 6 mg/kg single i.v. bolus, Experiment 2
[9] = 8 mg/kg single i.v. bolus, Experiment 1
[10] = 8 mg/kg single i.v. bolus, Experiment 2
[11] = 10 mg/kg single i.v. bolus, Experiment 1
[12] = 12 mg/kg single i.v. bolus, Experiment 1

With `C/C(=C\c1csc(C)n1)[C@@H]1C[C@@H]2O[C@]2(C)CCC[C@H](C)[C@H](O)[C@@H](C)C(=O)C(C)(C)[C@@H](O)CC(=O)O1` [epothilone B] the “Body Weight % Change” value [1, 5] was 12.3 ± 3.0%, the “Body Weight Δ (mean g ± SD)” value [1, 5] was 2.3 ± 0.6 g and the Mortalities [1, 5] was 0/3. For the same compound, the “Body Weight % Change” value [1, 6] was 6.5 ± 2.6%, the “Body Weight Δ (mean g ± SD)” value [1, 6] was 1.3 ± 0.6 g and the Mortalities [1, 6] was 0/3. The “Body Weight % Change” value [1, 7] was −28.6 ± 3.5%, the “Body Weight Δ (mean g ± SD)” value [1, 7] was -6.1 ± 0.9 g and the Mortalities [1, 7] was 1/3. The “Body Weight % Change” value [1, 8] was −27.5 ± 2.1%, the “Body Weight Δ (mean g ± SD)” value [1, 8] was -5.3 ± 0.6 g and the Mortalities [1, 8] was 2/3. The “Body Weight % Change” value [1, 9] was −22.1 ± 13.1%, the “Body Weight Δ (mean g ± SD)” value [1, 9] was -5.1 ± 3.2 g and the Mortalities [1, 9] was 3/3. The “Body Weight % Change” value [1, 10] was −25.3 ± 3.9%, the “Body Weight Δ (mean g ± SD)” value [1, 10] was -5.0 ± 1.0 g and the Mortalities [1, 10] was 3/3. The “Body Weight % Change” value [1, 11] was −24.9 ± 1.6%, the “Body Weight Δ (mean g ± SD)” value [1, 11] was -5.6 ± 0.6 g and the Mortalities [1, 11] was 3/3. The “Body Weight % Change” value [1, 12] was −23.6 ± 11.9%, the “Body Weight Δ (mean g ± SD)” value [1, 12] was -5.4 ± 2.9 g and the Mortalities [1, 12] was 3/3. It also gave an MTD ([1]; single dose i.v., normal mice) of 4 mg/kg, an IC50 [2] of 0.64 ± 0.42 nM and an IC50 ([3]; KB-8511, 2 d exposure, mean ± SD, read-out: IC50 for growth inhibition) of 0.89 ± 0.47 nM. The “relative resistance, IC50 (resistant line)/IC50 (parental line)” value ([3]; KB-8511 vs parental line) was “(1.25)”, the “% Body Weight Change” value ([4]; 4 mg/kg, i.v. once per week) was −1 ± 5% and the “Survival (No. alive/total)” value ([4]; 4 mg/kg, i.v. once per week) was 8/9. For the same compound, the “Δ Body Weight” value ([4]; 4 mg/kg, i.v. once per week) was -1.2 ± 2.3 g, the “Tumor Response (T/C %) Lymph Nodes” value ([4]; 4 mg/kg, i.v. once per week) was 4% and the “Tumor Response (T/C %) Prostate” value ([4]; 4 mg/kg, i.v. once per week) was 2%. For the same compound, the “% Body Weight Change” value ([4]; 5 mg/kg, i.v. once per week) was −25 ± 5%, the “Survival (No. alive/total)” value ([4]; 5 mg/kg, i.v. once per week) was 7/9 and the “Δ Body Weight” value ([4]; 5 mg/kg, i.v. once per week) was -6.8 ± 1.5 g. The “Tumor Response (T/C %) Lymph Nodes” value ([4]; 5 mg/kg, i.v. once per week) was 4%, the “Tumor Response (T/C %) Prostate” value ([4]; 5 mg/kg, i.v. once per week) was 1% and the “% Body Weight Change” value ([4]; 6 mg/kg, i.v. once) was −6 ± 12%. For the same compound, the “Survival (No. alive/total)” value ([4]; 6 mg/kg, i.v. once) was 9/9, the “Δ Body Weight” value ([4]; 6 mg/kg, i.v. once) was -1.4 ± 4.1 g and the “Tumor Response (T/C %) Lymph Nodes” value ([4]; 6 mg/kg, i.v. once) was 4%. The “Tumor Response (T/C %) Prostate” value ([4]; 6 mg/kg, i.v. once) was 5%, the “% Body Weight Change” value ([4]; 8 mg/kg, i.v. once) was −13 ± 15% and the “Survival (No. alive/total)” value ([4]; 8 mg/kg, i.v. once) was 7/9. The “Δ Body Weight” value ([4]; 8 mg/kg, i.v. once) was -5.2 ± 4.3 g, the “Tumor Response (T/C %) Lymph Nodes” value ([4]; 8 mg/kg, i.v. once) was 4% and the “Tumor Response (T/C %) Prostate” value ([4]; 8 mg/kg, i.v. once) was 1%. For the same compound, the “animals with detectable metastases” value ([4]; in each of the epothilone B treatment groups, all animals in vehicle controls) was “one”.

Reference: US7875601B2, “Cancer treatment with epothilones” (Novartis AG, priority 1998, dated 2011)
